Laboratory results taken from patent US9073864B2, “Aromatic ring compound” (TAKEDA PHARMACEUTICAL COMPANY LIMITED, priority 2012, dated 2015).

Tests used:
[1] = target: T1, human type glucagon receptor (Homo sapiens, UniProt P47871); experiment: Measurement of glucagon binding inhibitory activity ([125I]-glucagon, receptor membrane protein); conditions: test compound 10 μM; 0.4% DMSO alone = 0%, unlabeled glucagon 1 μM = 100%; read-out: inhibitory rate (%) at 10 μM
T1 construct: an about 1.4 kb DNA fragment containing glucagon receptor gene was recovered from the gel; expressed in transfected cells; host or cells: FreeStyle CHO cells (transient expression); membrane fraction prepared by homogenisation and ultracentrifugation
T1 sequence (P47871 26-477): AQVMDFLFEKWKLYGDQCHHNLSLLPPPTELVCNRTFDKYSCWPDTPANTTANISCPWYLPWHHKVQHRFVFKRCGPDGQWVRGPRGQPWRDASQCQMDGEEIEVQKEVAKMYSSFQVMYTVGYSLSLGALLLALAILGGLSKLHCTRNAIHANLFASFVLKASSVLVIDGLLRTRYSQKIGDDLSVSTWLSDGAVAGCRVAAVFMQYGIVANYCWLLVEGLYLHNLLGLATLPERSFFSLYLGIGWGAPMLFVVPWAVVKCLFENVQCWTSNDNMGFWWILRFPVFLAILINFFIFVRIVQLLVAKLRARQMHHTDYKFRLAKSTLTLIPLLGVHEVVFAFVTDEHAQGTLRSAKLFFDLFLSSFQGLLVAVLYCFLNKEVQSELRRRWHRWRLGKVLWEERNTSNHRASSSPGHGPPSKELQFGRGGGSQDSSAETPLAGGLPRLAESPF
Description: The glucagon binding inhibitory action of the compound of the present invention was evaluated by the following method.
(1) Cloning of Human Glucagon Receptor Gene
Human glucagon receptor gene was cloned by PCR reaction using human pancreas Marathon-ready cDNA (Clontech Laboratories, Inc.) as a template and the following primer set.
The PCR reaction was performed using Advantage 2 polymerase (Clontech Laboratories, Inc.) and according to the attached protocol. The obtained PCR product was subjected to agarose gel (1%) electrophoresis, an about 1.4 kb DNA fragment containing glucagon receptor gene was recovered from the gel, and digested with restriction enzymes EcoRI and NotI. The restriction enzyme-treated DNA was subjected to agarose gel (1%) electrophoresis, an about 1.4 kb DNA fragment was recovered and ligated with plasmid pMSRaneo digested with restriction enzymes EcoRI and NotI to give human type glucagon receptor expression plasmid DNA “pMSRaneo/hGCGR”. The base sequence of the inserted fragment was confirmed to be identical with the object sequence.
(2) Preparation of Glucagon Receptor Membrane Protein
Human type glucagon receptor was expressed using FreeStyle CHO Expression System (Invitrogen™). According to the manual attached to the FreeStyle CHO Expression System, and using the human type glucagon receptor expression plasmid DNA “pMSRaneo/hGCGR” produced in the above-mentioned (1), transient expression was performed by FreeStyle CHO cells. The above-mentioned DNA was transfected, and shaking culture was performed at 37° C., 8% CO2, 125 rpm for 2 days. The culture medium was centrifuged at 2,000 rpm for 10 min and the cells were recovered. The recovered cells were washed with PBS, suspended in homogenate buffer [10 mM NaHCO3 (pH 7.4), 1 mM EDTA, complete EDTA-free (Roche, Ltd., 1 tablet/50 ml)], and the cells were disrupted by a Polytron cell disruption apparatus (Kinematica AG). The disruption solution was centrifuged at 2,000 rpm for 10 min, and the supernatant was recovered. The supernatant was centrifuged at 35,000 rpm for 60 min, and the precipitate was suspended in a buffer [20 mM Tris-HCl (pH 7.4), 5 mM EDTA, complete EDTA-free (Roche, Ltd., 1 tablet/50 ml)] to give a glucagon receptor membrane protein.
(3) Measurement of Glucagon Binding Inhibitory Activity
The reaction was started by adding 50 μl of a glucagon receptor membrane protein solution diluted with a reaction buffer [50 mM HEPES (pH 7.4), 5 mM EGTA, 5 mM magnesium chloride, 0.1% BSA, 0.005% Tween20] to 100 μg/ml, 25 μl of a test compound solution containing 0.4% DMSO, which solution was prepared with the reaction buffer to a compound concentration of 40 μM, and 25 μl of radiolabeled glucagon ([^125I]-Receptor Grade Glucagon; Perkin Elmer Inc.) diluted with the reaction buffer to 200 pM to each well of a 96 well plate (Corning Incorporated). The plate was stood at room temperature for 90 min, then the reaction solution was transferred from the reaction plate onto a 96 well unifilter GF/C plate (Perkin Elmer Inc.) by a cell harvester (Perkin Elmer Inc.), and suctioned to collect a membrane fraction on the filter. The filter was immersed in a 0.3% polyethyleneimine solution in advance to prevent non-specific adsorption of the labeled ligand. The filter was washed 4 times with the reaction buffer, and dried at 42° C. for 2 hr. To each well was added 25 μl of scintillator (MicroScint0; Perkin Elmer Inc.), and the amount of fluorescence was measured by a microplate scintillation counter (TopCount NXT™; Perkin Elmer Inc.).
The inhibitory rate (%) of the well added with the test compound (10 μM; containing 0.4% DMSO solution) was calculated wherein the reaction rate of the well added with 0.4% DMSO alone was 0% inhibitory rate and that of the well added with unlabeled glucagon (final concentration 1 μM) was 100% inhibitory rate.

[2] = test system: streptozotocin (STZ)-induced type 1 diabetes model rat; experiment: Suppressive action on hyperglycemia after eating in STZ-induced type 1 diabetes model rat bred with time-limited feeding; type: in vivo; conditions: 10 mg/kg p.o. q.d., detemir 10 U/kg s.c., n=8; for average plasma glucose concentration, 1 hr: 1 hr after administration and start of feeding; for average plasma glucose concentration, 2 hr: 2 hr after administration (immediately before end of feeding); for average plasma glucose concentration, value before administration: next day of 3 days repeated compound administration, immediately before feeding and dosing
Description: Suppressive Action on Hyperglycemia after Eating in Streptozotocin (STZ)-Induced Type 1 Diabetes Model Rat Bred with Time-Limited Feeding
Type 1 diabetes model STZ rat was generated by intravenously administering streptozotocin (STZ: Wako Pure Chemical Industries, Ltd., 65 mg/kg) after overnight fasting. From 1 week after the STZ treatment, time-limited feeding (feeding twice per day for 2 hours each time at 9:00-11:00 am and 16:00-18:00 pm) was started. On day 6 of breeding with time-limited feeding, blood samples were collected immediately before feeding in the morning and after 2 hours of feeding (immediately before end of feeding), and the rats were divided into two groups of detemir (long-acting insulin preparation) treatment group and detemir non-treatment group, with an increase in the plasma glucose concentration associated with the feed intake as an index. In the detemir treatment group, repeated subcutaneous administration of detemir (10 U/kg body weight, Novo Nordisk Pharma Ltd., once per day) was started after the end of feeding in the afternoon, and continued for 7 days until one day before evaluation of the influence of compound administration. Similarly, the detemir non-treatment group was subcutaneously administered repeatedly with saline for 7 days.
The day after repeated administration of detemir for 3 days, blood samples were collected in the same manner as above, and the animals in the detemir treatment group were divided into 3 groups based on an increase in the plasma glucose concentration associated with the feed intake. Each group was orally administered repeatedly with a 0.5% methylcellulose (MC) suspension containing the compound of Example 3 or 21 (10 mg/kg, q.d.) (8 per each group), or 0.5% methylcellulose solution (compound non-administration group, 8) for 4 days before feeding in the morning, starting from the next day of repeated administration of detemir for 4 days.
The next day of repeated administration of detemir for 7 days (the next day of repeated administration of compound for 3 days), blood samples were collected immediately before the start of feeding (and each compound administration) in the morning to obtain values before administration. Also, blood samples were collected after 1 and 2 hours of the administration (immediately before end of feeding), and an influence of compound administration on the profile of plasma glucose concentration after feed intake was evaluated.
Throughout the test, blood samples were collected from the tail vein, and the plasma glucose concentration was measured using Model 7180 HITACHI automatic analyzer.

Wistar fatty rat = experiment: Hypoglycemic action in Wistar fatty rat (single administration); type: in vivo; conditions: 10 mg/kg oral, 4 hr after administration, male Wistar fatty rats, change relative to non-administration group
Description: Hypoglycemic Action in Wistar Fatty Rat (Single Administration)
Wistar fatty rats (male, 25- to 26-week-old) were orally administered with a 0.5% methylcellulose suspension containing a test compound (10 mg/kg body weight) (test compound administration group, 4-6 per group) or 0.5% methylcellulose solution (test compound non-administration group, 4-6 per group), blood samples were collected from the rat tail vein 4 hr after the administration, and the hypoglycemic action was evaluated using the blood. The blood glucose was measured using Model 7180 HITACHI automatic analyzer (Hitachi, Ltd.).
In each animal of the test compound administration group and the test compound non-administration group, changes in the blood glucose level from that before administration was calculated, the difference between the “average change of test compound non-administration group” and the “change in each animal of test compound administration group” was calculated as the “change in blood glucose due to test compound”, and the average of each group was taken as the “blood glucose change value (mg/dL)”.

Row | inhibition at 10 µM [1] [%] | Structure (SMILES) | average plasma glucose concentration, 1 hr [2] [mg/dL] | average plasma glucose concentration, 2 hr [2] [mg/dL] | average plasma glucose concentration, value before administration [2] [mg/dL] | blood glucose change value (Wistar fatty rat) [mg/dL]
1 | 91 | Cc1cc(-c2ncc(C(F)(F)F)cn2)ccc1C(CCC(F)(F)F)Nc1ccc(C(=O)N2CCC[C@@H](C(=O)O)C2)cc1 (stereo partly drawn) [Example 3, (3R)-1-(4-((4,4,4-trifluoro-1-(2-methyl-4-(5-(trifluoromethyl)pyrimidin-2-yl)phenyl)butyl)amino)benzoyl)piperidine-3-carboxylic acid] | 463.6 | 555.2 | 397.0 | -142.5
2 | 90 | Cc1cc(-n2cc3c(n2)CCCC3)ccc1C(CCC(F)(F)F)Nc1ccc(C(=O)N2CCC[C@@H](C(=O)O)C2)cc1 (stereo partly drawn) [Example 21, (3R)-1-(4-((4,4,4-trifluoro-1-(2-methyl-4-(4,5,6,7-tetrahydro-2H-indazol-2-yl)phenyl)butyl)amino)benzoyl)piperidine-3-carboxylic acid] | 471.1 | 552.0 | 435.6 | -136.0
